Molecules are shown by their SMILES. Active and inactive are the calls of the source.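 The calls were made as follows: active = AC50, the dose giving half-maximal effect, exceeds a fixed cutoff for a compound that rescues yeast growth under heat; inactive = the rest, inconclusive results apart.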 Where only a bound is given, the exact number is not on record here.

This assay concerns S. cerevisiae Burl-1 ts mutant growth, BacTiter-Glo, 38.5C 24 h. As to the kind of experiment: growth induction of Burl-1 ts yeast mutant, dose response, counter-screen for SUMOylation pathway inhibitor project, whole organism, S. cerevisiae, luminescence (AID 463199).
Turning to `O=c1[nH]cnc2sc3c(c12)CCC3`, the AC50 is > 42 µM (inactive).

With `Cc1cc(Br)ccc1NC(=O)c1cnc(N2CCN(c3ccccn3)CC2)c2ccccc12`, the AC50 is > 42 µM (inactive). For `Cc1onc(-c2ccccc2)c1C(=O)N/N=C/C=C/c1ccccc1`, the AC50 was > 42 µM (inactive). Take `CCOC(=O)c1ccc(NC(=O)NCc2ccncc2)cc1`: the AC50 was > 42 µM (inactive). As to `CC1CCCC(C)N1/N=C/c1cc(Br)cc(Br)c1O` (stereo not drawn), the AC50 is > 42 µM (inactive). To `COc1cc2ccccc2cc1C(=O)Nc1ccc(CN2CCOCC2)cc1` belongs > 42 µM (inactive); to `O=C1c2ccccc2C(=O)N1CCCCSc1nc2ccccc2c(=O)n1CCCN1CCOCC1`, > 42 µM (inactive).

With `O=C(CSc1nnnn1C1CC2CCC1C2)Nc1ccnc2ccccc12` (stereo not drawn), the AC50 is > 42 µM (inactive). As to `O=S(=O)(c1ccc(C2CCCCC2)cc1)N1CCCC1`, the AC50 was > 42 µM (inactive). With `CCOC(=O)c1cc([N+](=O)[O-])c([N+](=O)[O-])cc1NC(C)=O` the figure was > 42 µM (inactive); with `COc1ccccc1CNC(=O)[C@H](C)NC(=O)C1CCN(C(=O)[C@@H](N)CC(C)C)CC1`, > 42 µM (inactive); with `CC(C)CCNC(=O)Cn1c(=O)oc2cc(S(=O)(=O)N3CC(C)CC(C)C3)ccc21` (stereo not drawn), > 42 µM (inactive). With `N#CC1=C(N)Oc2n[nH]c(CSc3ccccc3)c2C12C(=O)Nc1ccccc12` (stereo not drawn) the figure was > 42 µM (inactive); with `Clc1ccc(CONc2ncnc3nonc23)c(Cl)c1`, 9.28 µM; with `CCOC(=O)C1C(c2ccc(C)o2)NC(=O)NC1(O)C(F)(F)F` (stereo not drawn), > 42 µM (inactive). As for `CCNCc1nc2cc(Cl)ccc2c(=O)[nH]1`, the AC50 is > 42 µM (inactive). Turning to `Cn1c(-c2ccc3c(c2)OCO3)cnc1NC(=O)CCC(=O)NCCc1ccccc1`, the AC50 was > 42 µM (inactive).

As to `O=C(c1cn(-c2ccccc2)nc1-c1cccs1)N1CCOCC1`, the AC50 is > 42 µM (inactive). As to `O=C1CC(=O)C(n2cncn2)C(c2ccc(Cl)cc2Cl)C1` (stereo not drawn), the AC50 is > 42 µM (inactive). For `Fc1ccc2c(c1)nnn2C1CCN(Cc2nnnn2C2CCCCC2)CC1`, the AC50 is > 42 µM (inactive). Regarding `COc1ccc(S(=O)(=O)Nc2ccc(NC(C)=O)cc2)cc1OC`, the AC50 is > 42 µM (inactive). In the case of `O=C1c2cc(N3CCCC3)c([N+](=O)[O-])cc2C(=O)N1c1ccccc1`, the AC50 is > 42 µM (inactive). For `O=C(c1ccc([N+](=O)[O-])o1)N1CCN(c2nc3c(Cl)cccc3s2)CC1`, the AC50 is > 42 µM (inactive). As for `Cc1nn(C)c(Cl)c1CN1CCN(CCC(C)C)C(CCO)C1` (stereo not drawn), the AC50 is > 42 µM (inactive). Turning to `O=C(CN1C(=O)NC2(CCCC2)C1=O)Nc1nc2ccccc2[nH]1`, the AC50 is > 42 µM (inactive).

Consider `Cc1c(C2(O)CCCCC2)[nH]c2ccc(C#N)cc12`, for which the AC50 is > 42 µM (inactive). To `C[C@]12CC[C@H]3C(=CCc4cc(O)ccc43)[C@@H]1CCC2=O` belongs > 42 µM (inactive); to `CC(C)(C)c1cc(NCCCn2ccnc2)n2ncc(-c3ccc(Cl)cc3)c2n1`, > 42 µM (inactive); to `COc1ccc(NC(=S)NC(=O)C2CCC2)cc1`, > 42 µM (inactive). In the case of `CC(=O)NCCc1nc2cc(NC(=O)c3ccc(F)cc3)ccc2n1C`, the AC50 was > 42 µM (inactive).

Take `CCCOc1ccccc1C1NC(=O)NC(C)=C1C(=O)OCc1ccccc1` (stereo not drawn): the AC50 is > 42 µM (inactive).

Consider `Cc1nnc(SCC(=O)NCc2ccccc2Cl)[nH]c1=O`, for which the AC50 was > 42 µM (inactive). As to `CS(=O)(=O)N(CCc1ccccc1)CC(=O)NCc1cccnc1`, the AC50 was > 42 µM (inactive). As for `O=C(/C(=N\Nc1ccc(Br)cc1)Sc1nnnn1-c1ccccc1)c1ccccc1`, the AC50 is > 42 µM (inactive).

In the case of `O=C(N=C1SC2CS(=O)(=O)CC2N1c1ccc(F)c(Cl)c1)C1CC1` (stereo not drawn), the AC50 was > 42 µM (inactive). To `COc1ccc(C)cc1NC(=O)Cn1c(=O)oc2ccccc21` belongs > 42 µM (inactive); to `O=C(c1ccc(COc2ccccc2Cl)o1)N1N=C(C(F)F)CC1(O)C(F)F` (stereo not drawn), > 42 µM (inactive); to `CCOc1cc(-c2ccccc2)nc(N)n1`, > 42 µM (inactive).

For the compound `CCN(CC)c1ccc(C=C2C(=O)OC(c3ccccc3)OC2=O)cc1` (stereo not drawn), the AC50 is > 42 µM (inactive). With `O=S(=O)(NCC1CCCN(Cc2ccccc2O)C1)c1cccc2cccnc12` (stereo not drawn), the AC50 is > 42 µM (inactive). To `CC(=O)Nc1ccc(/C(C)=N/NC(=O)c2ccncc2)cc1` belongs > 42 µM (inactive). With `O=C(C1CCN(S(=O)(=O)N2CCC3(CC2)OCCO3)CC1)N1CCC(Cc2ccccc2)CC1` the figure was > 42 µM (inactive). With `c1ccc(-c2cc3cc4c(cc3cn2)OCO4)cc1`, the AC50 was > 42 µM (inactive).

For `Cc1cc(C)n(CCCNC(=O)CN(C)S(=O)(=O)c2ccc(Cl)cc2)n1`, the AC50 was > 42 µM (inactive). Turning to `CC(=O)Nc1ccc(S(=O)(=O)Nc2cccc(-c3ccc4nncn4n3)c2)cc1`, the AC50 is > 42 µM (inactive). Turning to `O=c1c2ccccc2c2ccccc2c(=O)n1-c1ccccc1`, the AC50 is > 42 µM (inactive). Take `On1c(-c2ccccc2Cl)nc2ncccc21`: the AC50 was > 42 µM (inactive).

On to `Cc1[nH]n(-c2ccccc2)c(=O)c1C(C[N+](=O)[O-])c1ccc(Br)cc1` (stereo not drawn), for which the AC50 was 42.1 µM. In the case of `CC(C)C(OC(=O)CN1C(=O)COc2ccccc21)C(=O)NC1CCCC1` (stereo not drawn), the AC50 is > 42 µM (inactive). With `O=C(c1ccco1)N1CCN(C2CC(=O)N(c3ccc(F)c(Cl)c3)C2=O)CC1` (stereo not drawn) the figure was > 42 µM (inactive). With `Cc1ccc(-c2nc(-c3cccnc3)sc2CC(=O)O)cc1` the figure was > 42 µM (inactive). With `C/C(CC1(O)C(=O)Nc2ccccc21)=N\O` (stereo not drawn) the figure was > 42 µM (inactive); with `COCCCN1C(=O)c2ccc(C(=O)Nc3ccc(OC)cc3OC)cc2C1=O`, > 42 µM (inactive). In the case of `Cc1ccc(C(=O)/C=C/c2ccc(-c3ccccc3[N+](=O)[O-])o2)cc1`, the AC50 was > 42 µM (inactive). Turning to `CC(=O)N1CCCc2cc(S(=O)(=O)Nc3ccc(C)cc3C)ccc21`, the AC50 is > 42 µM (inactive).

Regarding `COc1ccc(NC(=O)CSc2nccc(C)n2)cc1`, the AC50 was > 42 µM (inactive). Consider `Cc1ccccc1CSc1n[nH]c(NS(=O)(=O)c2ccccc2)n1`, for which the AC50 was > 21 µM (inactive). Regarding `Cc1ccccc1-c1nc2ccc(Cl)cc2c(=O)n1O`, the AC50 was > 42 µM (inactive). Consider `CC(C)CCn1c(C(C)O)nc2ccccc21` (stereo not drawn), for which the AC50 is > 42 µM (inactive).

In the case of `Cc1cc(S(=O)(=O)N2CCCCC2CCNC(=O)C(=O)NCC2CCCO2)ccc1F` (stereo not drawn), the AC50 was > 42 µM (inactive). For `O=C1CN(C(=O)COC(=O)CCNS(=O)(=O)c2ccc(Cl)cc2)c2ccccc2N1`, the AC50 was > 42 µM (inactive). On to `Cc1cc(C)c(S(=O)(=O)NCC(c2cccnc2)N2CCN(Cc3ccccc3)CC2)c(C)c1` (stereo not drawn), for which the AC50 is > 42 µM (inactive). As for `COc1cc(CN2CCC(Oc3cc(C(=O)NC4CC4)ccc3OC)CC2)cc(OC)c1`, the concentration at half-maximal activity (AC50) is 16.9 µM.

These data come from PubChem BioAssay AID463199 (Broad Institute, 2010).
